Literature values as cited in patent EP0551434B1 (BOARD OF REGENTS THE UNIVERSITY OF TEXAS SYSTEM, priority 1990, dated 1992).

Biological target: estrogen receptor (Homo sapiens, UniProt P03372)
Conditions: Salituro et al.; cited from earlier work

Sequence of estrogen receptor (P03372 whole entry): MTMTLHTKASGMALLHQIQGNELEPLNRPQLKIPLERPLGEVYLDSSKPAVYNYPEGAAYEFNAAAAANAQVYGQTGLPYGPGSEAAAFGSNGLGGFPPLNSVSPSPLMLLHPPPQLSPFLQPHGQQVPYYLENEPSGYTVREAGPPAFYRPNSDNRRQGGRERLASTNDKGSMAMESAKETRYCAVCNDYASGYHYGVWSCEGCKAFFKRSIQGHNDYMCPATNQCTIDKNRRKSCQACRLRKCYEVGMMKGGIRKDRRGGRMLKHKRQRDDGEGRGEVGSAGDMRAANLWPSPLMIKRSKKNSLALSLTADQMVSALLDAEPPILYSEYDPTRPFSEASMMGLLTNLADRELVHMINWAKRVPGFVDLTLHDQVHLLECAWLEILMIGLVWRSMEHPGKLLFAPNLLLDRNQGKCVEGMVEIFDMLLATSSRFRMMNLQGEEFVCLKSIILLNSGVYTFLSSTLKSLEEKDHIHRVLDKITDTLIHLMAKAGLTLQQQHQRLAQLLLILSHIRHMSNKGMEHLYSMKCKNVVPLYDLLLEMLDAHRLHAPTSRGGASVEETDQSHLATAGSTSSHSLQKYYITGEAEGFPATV

Structure (SMILES): CC/C(=C(\c1ccccc1)c1ccc(OCCN2CC2)cc1)c1ccccc1 (single isomer, unassigned) [tamoxifen azizidine cis isomer, tamoxifen azizidine]
- fold less affinity than the trans isomer: 50 fold
